Source: paper PMC9030166, “Natural Phaeosphaeride A Derivatives Overcome Drug Resistance of Tumor Cells and Modulate Signaling Pathways” (Pharmaceuticals, 2022)

Key:
HBL-100 = assay: MTT cytotoxicity, sensitive HBL-100 cells; format: cell-based; details: Homo sapiens, 48 h
From the text: (§1) Cell cultures used in the work: adhesive cultures HBL-100 cells (cells of a normal mammary gland epithelium, immortalized by the SV40 virus and acquired tumorigenicity); MCF-7 breast cancer cells; PC-3 prostate adenocarcinoma cells; HCT-116 colorectal cancer cells; non-small cell lung cancer cells A549; human embryonic kidney cells HEK293; suspension cultures (NCI-H929 and RPMI8226 multiple myeloma cells), K562 chronic myeloid leukemia cells; THP-1 acute monocytic leukemia cells; and Jurkat acute T-cell leukemia cells. We also used several primary cultures of soft tissue sarcomas at 3–4passeges, kindly provided by T.I. Fetisov (The Ethics Committee of N.N. Blokhin NMRCO, protocol code 18-28-09095 and date of approval 28 September 2018).
(§2) Cells MCF-7, PC-3, A549, and HCT-116, and primary cultures of STSwere seeded in 96-well plates, 6 × 10^3 cells per well in 90 μL of culture medium. Suspension cultures were seeded at a concentration of 25 × 10^3 cells per well in 135 μL of medium. The test substances were dissolved in DMSO (Applichem, Council Bluffs, IA, USA) until a concentration of 1 × 10^−^2 M was obtained; for the subsequent dilution of the substances, a serum-free culture medium was used. The next day, for adhesive cultures, and on the same day, for suspension cultures, substances were added to the plates in a volume of 10 μL (adhesive cultures) and 15 μL (suspension cultures) per well at various concentrations; each concentration was added in 3–4 repetitions. The cells were cultured in the presence of substances for 48 h. Then, MTT reagent (PanEko, Moscow, Russia) was added to the wells at a concentration of 5 mg/mL in a volume of 20 μL per well. After 1.5–2 h, the medium with the reagent was removed, and the precipitate of the crystals of formazan was dissolved in 60 μL of DMSO. The optical density was determined using a Multiskan FC spectrophotometer (Thermo Scientific, Waltham, MA, USA) at a wavelength of 540 nm.
(§3) Based on the results of the experiments, a schedule was plotted of the dependence of the percentage of surviving cells (from control) on the concentration of the compound, and the sought concentration IC50 was calculated. The experiments were carried out in 3–4 times.

K562 = assay: MTT cytotoxicity, K562 chronic myeloid leukemia cells; format: cell-based; details: Homo sapiens
From the text: as §1
(§4) Modifications of cell lines: K562/i-S9 is a clone obtained after transfection of K562 cells with the ABCB1 (MDR1) gene-encoding P-glycoprotein [36]. Cells HBL-100/Dox and K562/i-S9_Dox are cells obtained by long-term selection with increasing concentrations of doxorubicin (Sigma-Aldrich, St. Louis, MO, USA) from HBL-100 and K562/i-S9 cells, respectively. MCF-7, A594 cells, and primary cultures of soft tissue sarcomas were cultured in DMEM medium (PanEko, Russia), PC-3 and HCT-116 cells and all suspension cultures in RPMI1640 medium (PanEko, Russia) supplemented with 10% fetal bovine serum (GE Healthcare LifeSciences, USA), and gentamicin at a concentration of 40 μg/mL at 37 °C and 5% CO2.
as §2, §3

NCI-H929 = assay: MTT cytotoxicity, NCI-H929 multiple myeloma cells; format: cell-based; details: Homo sapiens, suspension culture, 48 h
From the text: as §1, §4, §2, §3

Jurkat = assay: MTT cytotoxicity, Jurkat acute T-cell leukemia cells; format: cell-based; details: Homo sapiens, suspension culture, 48 h
From the text: as §1, §4, §2, §3

THP-1 = assay: MTT cytotoxicity, THP-1 acute monocytic leukemia cells; format: cell-based; details: Homo sapiens, suspension culture, 48 h
From the text: as §1, §4, §2, §3

HCT-116 = assay: MTT cytotoxicity, HCT-116 colorectal cancer cells; format: cell-based, human; details: Homo sapiens, HCT-116, adhesive tumor culture, 48 h
From the text: as §1, §4, §2, §3

PC3 = assay: MTT cytotoxicity, PC-3 prostate adenocarcinoma cells; format: cell-based, human; details: Homo sapiens, PC-3, adhesive tumor culture, 48 h
From the text: as §1, §4, §2, §3

MCF-7 = assay: MTT cytotoxicity, MCF-7 breast cancer cells; format: cell-based; details: Homo sapiens, MCF7, adhesive tumor culture, 48 h
From the text: as §1, §4, §2, §3

A549 = assay: MTT cytotoxicity, A549 non-small cell lung cancer cells; format: cell-based, human; details: Homo sapiens, A549, adhesive tumor culture, 48 h
From the text: as §1, §4, §2, §3

HEK293 = assay: MTT cytotoxicity, human embryonic kidney cells HEK293; format: cell-based; details: 48 h
From the text: as §1, §2, §3

RPMI8226 = assay: MTT cytotoxicity, RPMI8226 multiple myeloma cells; format: cell-based; details: Homo sapiens, RPMI-8226, suspension culture, 48 h
From the text: as §1, §4, §2, §3

HBL-100/Dox = assay: MTT cytotoxicity, resistant HBL-100/Dox cells; format: cell-based, human; details: for IC50: Homo sapiens, HBL-100, resistant version, MTT, 48 h
From the text: At the next stage, the cytotoxic activity of compounds 1, 2, and 9 (Scheme 2) was investigated on several pairs of cell lines that differ in the expression of P-gp and the method by which they were obtained. […] K562/i-S9_Dox cells were obtained from K562/i-S9 by selection with low concentrations of doxorubicin to increase P-gp expression.
as §4, §2
The experiments were carried out in 3–4 times.

K562/i-S9_Dox = assay: MTT cytotoxicity, resistant K562/i-S9_Dox cells (P-gp overexpression); format: cell-based, human
From the text: (§5) At the next stage, the cytotoxic activity of compounds 1, 2, and 9 (Scheme 2) was investigated on several pairs of cell lines that differ in the expression of P-gp and the method by which they were obtained. K562/i-S9 cells are the result of the ABCB1 transfection into K562 cells, which increases P-gp expression, but should not seriously affect other signaling pathways that could lead to drug resistance. K562/i-S9_Dox cells were obtained from K562/i-S9 by selection with low concentrations of doxorubicin to increase P-gp expression. Subline HBL-100/Dox is a derivative of HBL-100 cells, obtained by long-term selection with increasing concentrations of doxorubicin, which led not only to an increase in P-gp expression, but also to a change in the signaling pathways in this subline. Cells of the K562/i-S9_Dox subline express the highest level of P-gp: 94.7% ± 2.3 (p < 0.0001 relative to K562, and p = 0.04 relative to K562/i-S9). In cells of the K562/i-S9 line, the expression of P-gp is 80% ± 8.2 (p < 0.0001 relative to K562). At 0.7% ± 0.5, P-gp is practically not expressed in K562 cells (Figure 1).
as §4, §2, §3

K562/i-S9 = assay: MTT cytotoxicity, resistant K562/i-S9 cells (ABCB1 transfected); format: cell-based, human
From the text: as §5, §4, §2, §3

[1] = tested on: CMT № 3 (Epithelial Sarcoma (Metastasis)); assay: MTT cytotoxicity, primary culture of soft tissue sarcoma CMT № 3; format: cell-based; details: Homo sapiens, 48 h
From the text: (§6) It is believed that such cultures have a molecular profile that corresponds more with cells from the human body, in comparison with that of stable cultures of tumor cells (Table 3).
as §1, §4
as §2, with “Then, MTT reagent (PanEko, Moscow, Russia) was added to the wells at a concentration of 5 mg/mL in a volume of 20 μL per well. After 1.5–2 h, the medium with the reagent was removed, and the precipitate of the crystals of formazan was dissolved in 60 μL of DMSO.” left out
(§7) Based on the results of the experiments, a schedule was plotted of the dependence of the percentage of surviving cells (from control) on the concentration of the compound, and the sought concentration IC50 was calculated. […]

[2] = tested on: CMT № 2 (Malignant Schwannoma); assay: MTT cytotoxicity, primary culture of soft tissue sarcoma CMT № 2; format: cell-based; details: Homo sapiens, 48 h
From the text: as §6, §1, §4
as §2, with “Then, MTT reagent (PanEko, Moscow, Russia) was added to the wells at a concentration of 5 mg/mL in a volume of 20 μL per well. After 1.5–2 h, the medium with the reagent was removed, and the precipitate of the crystals of formazan was dissolved in 60 μL of DMSO.” left out
as §7

[3] = tested on: CMT № 1 (Extraskeletal Ewing’s Sarcoma); assay: MTT cytotoxicity, primary culture of soft tissue sarcoma CMT № 1; format: cell-based; details: Homo sapiens, 48 h
From the text: as §6, §1, §4
as §2, with “Then, MTT reagent (PanEko, Moscow, Russia) was added to the wells at a concentration of 5 mg/mL in a volume of 20 μL per well. After 1.5–2 h, the medium with the reagent was removed, and the precipitate of the crystals of formazan was dissolved in 60 μL of DMSO.” left out
as §7

[4] = K562, suspension culture, 48 h (Table 2)

Compound | IC50 (HBL-100) | IC50 (K562; [4]) | IC50 (NCI-H929) | IC50 (Jurkat) | IC50 (THP-1) | IC50 (HCT-116) | IC50 (PC3) | IC50 (MCF-7) | IC50 (A549) | IC50 (HEK293) | IC50 (RPMI8226) | IC50 (HBL-100/Dox) | further results
COc1cc([C@@H]2c3cc4c(cc3[C@@H](O[C@@H]3O[C@@H]5CO[C@@H](C)O[C@H]5[C@H](O)[C@H]3O)[C@H]3COC(=O)[C@H]23)OCO4)cc(OC)c1O [Etoposide, etoposide, reference compound] | 4700 ± 900 nM | 5.5 ± 3 µM | 1400 ± 500 nM | 900 ± 300 nM | 1800 ± 200 nM | 21 ± 9.9 µM | 27.1 ± 3.2 µM | 8.9 ± 2.3 µM | 65.3 ± 5.2 µM | 2000 ± 500 nM | 7.2 ± 1.9 µM | 111 ± 8.3 µM | –
COc1cccc2c1C(=O)c1c(O)c3c(c(O)c1C2=O)C[C@@](O)(C(=O)CO)C[C@@H]3O[C@H]1C[C@H](N)[C@H](O)[C@H](C)O1 [Doxorubicin, doxorubicin, reference compound] | 230 ± 30 nM | – | – | – | – | – | – | – | – | – | – | 128 ± 7.4 µM | IC50 (K562; sensitive K562 cells (Table 4), 48 h): 0.36 ± 0.17 µM; IC50 (K562/i-S9_Dox; Homo sapiens, K562, resistant version, doxorubicin selected, MTT, 48 h): 10.3 ± 1.2 µM; resistance of K562/i-S9_Dox cells relative to K562 (K562/i-S9_Dox; ratio of IC50 values, Table 4): 28 times; resistance of K562/i-S9_Dox relative to K562/i-S9 (K562/i-S9_Dox; ratio of IC50 values, Table 4): 2.6 times; resistance of HBL-100/Dox cells relative to HBL-100 (HBL-100/Dox; ratio of IC50 values, Table 5): 556 times; IC50 (K562/i-S9; Homo sapiens, K562i/S9, resistant version, ABCB1 transfected, MTT, 48 h): 3.9 ± 1.6 µM; resistance of K562/i-S9 cells relative to K562 (K562/i-S9; ratio of IC50 values, Table 4): 11 times
C=C1C2=C(C(=O)N1OC)[C@@H](N(C)CCO)[C@@](C)(O)[C@H](CCCCC)O2 [Compound 8, (2S,3R,4R)-3-hydroxy-4-[(2-hydroxyethyl)(methyl)amino]-6-methoxy-3-methyl-7-methylene-2-pentyl-3,4,6,7-tetrahydropyrano[2,3-c]pyrrol-5(2H)-one] | – | 3.4 ± 0.3 µM | 900 ± 300 nM | 1000 ± 300 nM | 1800 ± 200 nM | 7.5 ± 1 µM | 3.3 ± 0.6 µM | 1.8 ± 0.4 µM | 16.3 ± 0.9 µM | 3800 ± 200 nM | 1.5 ± 0.4 µM | – | IC50 [1]: 4.8 ± 0.5 µM; IC50 [2]: 2300 ± 800 nM; IC50 [3]: 3.9 ± 0.8 µM
